The text below walks through data of patent publication US12605407B2, “Methods to induce terminal differentiation in stem cells by interfering with DNA replication, methods of inducing pancreatic differentiation, and differentiated cells obtained thereof” (priority 2018, dated 2026).

The subject of assay [1] is pancreatic progenitors and beta cells. Kind of assay: Cell cycle progression profiling by flow cytometry (Edu incubation, Hoechst DNA content, KI67). In kind it is cell-based, human. As for the experimental part:
(§1) The beta cell clusters were dissociated using TrypLE™ Express into single cells. Cells were fixed with 4% PFA for 10 min and followed by permeabilization at −20° C. with cold methanol for 10 min. Primary antibodies were added at a dilution of 1:100 in autoMACs Rinsing Solution (Cat. No. 130-091-222, Miltenyi Biotec) containing 0.5% BSA at 4° C. for 1 hour. Secondary antibodies were added at a dilution of 1:500 at room temperature for 1 hour. The cells were filtered with BD Falcon 12×75 mm tube with cell strainer cap (Cat. No. 352235, BD) and subsequently analyzed by flow cytometer. Data were analyzed using Flowjo software. Negative controls were performed by only adding secondary antibodies.
To investigate the mechanism underlying the increased purity of stem cell-derived C-peptide positive cells induced by APH, cell proliferation, apoptosis and differentiation efficiency were examined during differentiation. The cell cycle progression was profiled at day 15, day 18, day 20 and day 27 of beta cell differentiation. In untreated cells, C-peptide positive cells started to form from day 15 (about 5%) (FIG. 2A) and reached a peak at day 20 (about 46%) (FIG. 2B). About 2% of total cells underwent proliferation during 2 hours of Edu incubation at each stage before day 20 and very few C-peptide positive cells were labeled positive for Edu (FIG. 2B). At day 27, the percentage of proliferating cells increased to about 13% and the percentage of C-peptide positive cells decreased due to proliferation of non-C-peptide cells in the clusters (FIG. 2B). When APH was added from day 15 to day 27, the number of C-peptide positive cells was increased as early as day 18, 3 days after addition of APH (FIG. 2C). At day 20, about 60% cells expressed C-peptide and the high expression of C-peptide was maintained until the day 27.
To determine the cell cycle phase at which aphidicolin arrested pancreatic progenitors and beta cells, flow cytometry combined with Hoechst staining for DNA content and EdU labeling was performed.
(§2) By the end of day 27, 30% of control cells were in cell cycle through G1 to M phase indicated by the expression of KI67 (a proliferation marker expressed in the cells within cell cycle) and amount of DNA content (FIG. 3A). […] The cell cycle gene expression in insulin expressing cells was also examined.

Assay [2] has as its system stem cell derived beta cells. Kind of assay: Gene expression by quantitative realtime PCR in sorted insulin-GFP positive cells. In kind it is cell-based, human.
Source text: Total RNA was extracted from the cells at beta cell stage (d27) from different conditions using a RNeasy Mini Kit (Cat. No. 74106, QIAGEN). The total RNA was reverse transcripted into cDNA using iScript™ Reverse Transcription Supermix (Cat. No. 170-8841, Bio-Rad), and the cDNA were sequentially used as template with SsoFast™ EvaGreen® Supermix (Cat. No. 172-5202, Bio-Rad) for quantitative realtime PCR.
as §2
Insulin positive cells were isolated based on GFP expression and the expressions of genes related to the maturation of beta cells including PDX1, NKX6.1, MAFA and insulin were evaluated (FIG. 6A). […] In addition, the C-peptide secretion was increased 2-6-fold, with an average of 3-fold, in response to high levels of glucose (FIG. 6D).

Assay [3] concerns stem cell derived beta cells. Kind of assay: Stability of beta cell identity in long-term culture after removal of compound at day 27. It is filed as cell-based, human. Here is the method: as §1
With APH, a high proportion of cells in the islet-like clusters were positive for C-peptide and NKX6.1, a transcription factor for maintaining the beta cell identity and functional maturation (Schaffer et al., 2013). […] Beta cells were cultured for additional 7 days until about day 34 and 30 days until about day 60 upon removal of these compounds at day 27. […] In contrast, in APH treated cells, there was no decrease in C-peptide or NKX6.1 on day 34 (FIG. 5A). […] After further culturing of the cells for extra 30 days, very few of cells in control group remained GFP expression and were positive for C-peptide.
The ability of other DNA replication inhibitors to stabilize the beta cell identity was investigated. The expressions of GFP were maintained after releasing cells from these inhibitors for 7 days until day 34. With additional 30 days of culture, the expressions of GFP were reduced in all conditions at certain levels, but the cells treated with Cis and Eto expressed higher GFP than the cells treated with APH compared to the other conditions (FIG. 5E, FIG. 5F).

A further assay relates to STZ-treated mice. Nature of the assay: Protection from diabetes after ablation of mouse beta cells by streptozotocin, glucose tolerance test. In kind it is in vivo. Here is the method:
The human C-peptide levels in mouse serum were measured every two weeks in the fed state. Intraperitoneal glucose tolerance test was performed by fasting overnight and injecting 2 g/kg D-glucose solution at 2 weeks after mouse beta cells were ablated with one high dose (150 mg/kg) Streptozocin (Cat. No. S0130-1G, Sigma-Aldrich). Blood was collected in heparin-coated tube at fed state, fasting and 30 min after glucose injection. Plasma were collected by centrifuging tubes at 2000 g for 15 minutes at 4° C. The supernatants were collected for C-peptide and insulin detection with Mercodia M-Plex™ ARRAY Chemiluminescent Mercodia Beta Kit. Blood glucose levels was measured at fed state, fasting and every 30 minutes after glucose injection for 2 hours.
The ability of APH treated cells to protect mice from diabetes was determined after eliminating endogenous mouse beta cells by streptozotocin (STZ). STZ ablates mouse beta cells but is not toxic to human beta cells at the concentrations used. After STZ treatment, the blood glucose levels were monitored and grafted beta cells were challenged with high glucose to check their function. The blood glucose levels remained in the normal range over time in 3 out of 4 mice (FIG. 7E). Mice were tolerant to glucose and normalized blood glucose levels within 15 min of glucose injection (FIG. 7F). The secretion of human C-peptide and insulin decreased after fasting and increased after glucose injection (FIG. 7G).

Setting [4] is: GFP positive cells from APH treated clusters versus GFP positive cells in control clusters.

In the case of `C[C@@]1(CO)[C@H](O)CC[C@@]2(C)[C@H]1CC[C@H]1C[C@@H]3C[C@@]12CC[C@]3(O)CO` [APH, Aphidicolin], in assay [1] (day 18, 3 days after addition of APH (added day 15 to day 27)), the “number of C-peptide positive cells” value is reported as “increased”. In addition, the “cells expressing C-peptide” value in assay [1] (day 20, APH added from day 15) is “about 60%”. For the same molecule, in assay [1] (end of day 27), the “cell cycle phase of arrest” value is on record as “arrested in G1 phase” and the “cells in cell cycle (KI67)” value is “About 5%”. Besides, the “high expression of C-peptide” value in assay [1] (until day 27, APH added day 15 to day 27) is listed as “maintained”. For the same molecule, in assay [1] (whole duration of differentiation, APH day 15 to day 27), the “proliferating cells (Edu)” value is “Very few cells, if any”. Moreover, in assay [2] (setting [4]), the “expression of MAFA at transcription level” value is reported as “significantly upregulated”, the “expression of NKX6.1 at transcription level” value is recorded as “significantly upregulated”, the “expression of PDX1 at transcription level” value is “significantly upregulated” and the “expression of insulin at transcription level” value is given as “significantly upregulated”. Further, in assay [2] (insulin positive cells), the “expression of CDK4” value was “downregulated”, the “expression of Cyclin D1” value is given as “downregulated” and the “expression of P21” value is on record as “upregulated”. Moreover, the “percentage of C-peptide positive cells, and C-peptide and NKX6.1 double positive cells, relative to day 27 before releasing” value in assay [3] (after 7 days of releasing cells from APH (day 34)) is given as “comparable”. Moreover, the “C-peptide or NKX6.1” value in assay [3] (day 34, APH removed on day 27) is “no decrease”. Besides, the “number of GFP and C-peptide positive cells compared to day 27 before removal” value in assay [3] (day 60) is recorded as “decreased”. Besides, the “percentage of C-peptide positive cells” value in assay [3] (day 60, APH treatment days 15-27) is “about 34%”. Also, in the assay with STZ-treated mice (after STZ treatment, mice transplanted with APH treated cells), the “mice whose blood glucose levels remained in the normal range over time” value is reported as 3 out of 4. Further, the “secretion of human C-peptide and insulin” value with STZ-treated mice (after fasting) was “decreased”. Also, the “secretion of human C-peptide and insulin” value with STZ-treated mice (after glucose injection) was “increased”. In the assay on STZ-treated mice (glucose tolerance test, STZ-treated mice), the “time to normalized blood glucose levels after glucose injection” value is ≤ 15 min.
